Assay results as given in US20060151574A1, “Formulations useful against hepatitis C virus infections” (priority 2002, published 2006).

Experiments:
HCV replicon cell lines = assay: HCV replicon cell lines: HCV RNA by Northern Blotting, NS5a by Western Blotting; assay type: cell-based, Hepatitis C virus
Text: The only reliable experimental animal HCV infection studies have been performed with chimpanzees. So far, there is no simple cell culture infection system available or HCV. Although a number of reports have been published describing in vitro propagation attempts of HCV in primary cells and cell lines, questions remain concerning reproducibility, low levels of expression and properly controlled detection methods (reviewed in J. Gen Virol. 81, 1631; Antiviral Chemistry and Chemotherapy 10, 99). Thus, the replicon system described by Bartenschlager and coworkers (Lohmann et al, Replication of subgenomic hepatitis C virus RNAs in a hepatoma cell line. Science 285, 110. 1999) was used for the studies disclosed herein. This replicon system reproduces a crucial part of the HCV replication cycle which is used as a system for simulating HCV infection. Bartenschlager's group produced bicistronic recombinant RNAs, so-called “replicons”, which carry the neomycin-phosphotransferase (NPT) gene as well as a version of the HCV genome where the sequences for the structural HCV proteins were deleted. After transfection of the subgenomic HCV RNA molecules into the human hepatoma cell line HuH-7, cells supporting efficient RNA-dependent RNA replication of the HCV replicons were selected based on co-amplification of the NPT gene and resulting resistance to the antibiotic G-418. Integration of coding information into the cellular genome was an exclusion criteria for functional replicons. Several lines were established from G-418 resistant clones with autonomously replicating HCV RNAs detectable by Northern Blotting.
Possible influences and/or dependencies of HCV's RNA-dependent RNA replication and nonstructural proteins on host cell transcription are accessible to analysis with the Clontech cDNA arrays used in the methods described herein. HuH-pcDNA3 cells are HuH7 cells resistant to G-418 by integration of a NPT gene-carrying plasmid (pcDNA3, Invitrogen) and serve as negative control. Three replicon lines were analyzed for changes in cellular RNA expression patterns compared to the control line: • HuH-9-13: cell line with persistant replicon IRES377/NS3-3′/wt, described in Science 1999, 285, 110-113, • HuH-5-15: cell line with persistant replicon IRES389/NS3-3′/wt, described in Science 1999, 285, 110-113, • HuH-11-7: cell line with persistant replicon IRES377/NS2-3′/wt, described in Science 1999, 285, 110-113.
(§1) Moreover, as model system for HCV replication there were utilized three replicon cell lines provided by Prof. R. Bartenschlager (University of Heidelberg, FRG). Cultures were treated for various periods of time with all bans retinoic acid (RA) for comparative purposes and the other agents selenium, selenium salts, Vitamin D3 and retinoids, like 9-cis retinoic acid, C1-C10 alkyl esters of 9-cis retinoic acid, C1-C10 alkyl amides of 9-cis retinoic add, N-(4-hydroxyphenyl)retinamide (4-HPR) and 6-[3-(1-adamantyl)+hydroxyphenyl]-2-naphthalene carboxylic acid (CD437; AHPN) (obtained from Sigma). Levels of expression of GI-GPx was measured on protein level by Western Blotting using antibodies provided by Prof. Brigelius-Flohe (University of Potsdam, FRG) and on RNA level by Northern blotting using GI-GPx-specific oligonucleotides as probes. Levels of HCV RNA were investigated by Northern Blotting using a DNA oligonucleotide complementary to the neomycin phosphotansferase gene as probe. Concentration of the viral protein NS5a was determined by Western Blotting with an NS5a-specific antibody (Biogenesis, UK).

[1] = system: nuclear receptors (RAR, RXR); assay: Ability to act as ligands for nuclear receptors; assay type: binding
replicon cells = assay: Cytotoxic effects on replicon cells
RAR = assay: Ligands for nuclear receptors: effector concentration; assay type: biochemical; details: read-out: EC50 (effector concentration, concentration showing 50% effect)
PKR mRNA = PKR mRNA levels by Northern blotting (interferon response); assay type: cell-based, human
Text: In the course of retinoic acid studies it was investigated whether the RA-effect may also be mediated by activating an interferon response. A typical interferon-inducible gene codes for the double-stranded RNA-dependent protein kinase (PKR).

interferon receptors = assay: Expression of interferon receptors in replicon cells by western Blotting; assay type: cell-based, human
GI-GPx = GI-GPx expression in replicon cells (Western / Northern blotting); assay type: cell-based, human
Experimental: as §1

[2] = 1 μM, seven days, depending on the cell line
[3] = HCV replicon cell lines, FIG. 1 Panel A
[4] = replicon cells, 1 μM, three days
[5] = six days, in the presence of selenium or a selenium salt like sodium selenite

SMILES: COC(C)(C)CCCC(C)C/C=C/C(C)=C/C(=O)O (stereo not drawn) [Methoprene acid, 11-methoxy-3,7,11-trimethyl-2E,4E-dodecadienoic acid]
- Effect on Replication (HCV replicon cell lines): −
- Receptor(s) [1]: RXR

SMILES: O=[Se](O)O [sodium selenite]
- Severe cytotoxic effects (replicon cells; substance alone): neither observed

SMILES: CC1=C(/C=C/C(C)=C\C=C\C(C)=C\C(=O)O)C(C)(C)CCC1 [9-cis RA, 9-cis retinoic acid]
- Effect on Replication (HCV replicon cell lines): +++
- reducing HCV load (HCV replicon cell lines): capable of reducing HCV load
- downregulate HCV RNA, compared with all trans retinoic acid alone (HCV replicon cell lines; first preliminary result): significantly better

SMILES: C/C(=C\c1ccc(C(=O)O)cc1)c1ccc2c(c1)C(C)(C)CCC2(C)C [TTNPB]
- Effect on Replication (HCV replicon cell lines): +++
- Receptor(s) [1]: RAR

SMILES: CC1(C)CCC(C)(C)c2cc(C(=O)Nc3ccc(C(=O)O)cc3)ccc21 [AM-580, (4-[5,6,7,8-tetrahydro-5,5,8,8-tetramethyl-2-naphtalenyl)carbox-amido]benzoic acid]
- Effect on Replication (HCV replicon cell lines): ++
- Receptor(s) [1]: RARα/not RXR

SMILES: CC1=C(/C=C/C(C)=C/C=C/C(C)=C/C(=O)Nc2ccc(O)cc2)C(C)(C)CCC1 [4-HPR, N-(4-hydroxyphenyl)retinamide]
- Effect on Replication (HCV replicon cell lines): ++
- Receptor(s) [1]: RAR

SMILES: CC1=C(/C=C/C(C)=C/C=C/C(C)=C/C(=O)O)C(C)(C)CCC1 [ATRA, all trans retinoic acid]
- Effect on Replication (HCV replicon cell lines): +++
- expression of subgenomic HCV RNA downregulated (HCV replicon cell lines; [2]): two- to five-fold
- expression of viral protein NS5a downregulated (HCV replicon cell lines; [2]): two- to five-fold
- HCV RNA (HCV replicon cell lines; [3]): suppression
- NS5a protein expression (HCV replicon cell lines; [3]): suppression
- HCV down-regulation by IFN alpha (HCV replicon cell lines; in the presence of RA, FIG. 2 center Panel): slightly enhanced
- effect on HCV expression (HCV replicon cell lines; [4]): hardly an effect
- reduction of HCV-NS5a protein (HCV replicon cell lines; [5]): two- to five-fold
- reduction of HCV-RNA (HCV replicon cell lines; [5]): two- to five-fold
- toxic effects (replicon cells; [5]): absence of toxic effects
- transcription of PKR (PKR mRNA): did not induce
- PKR mRNA levels (PKR mRNA; mock-transfected HuH7 cells (pcDNA3) and replicon cell lines, ATRA 1 μM, IFN as control, FIG. 1 Panel C): no up-regulation
- Receptor(s) [1]: RAR
- interferon receptors on protein level (interferon receptors): no up-regulation
- up-regulation of GI-GPx on RNA- and protein level (GI-GPx; 1 μM, seven days of incubation): three- to ten-fold
- GI-GPx gene expression (GI-GPx; HCV replicon cell lines, FIG. 1 Panel B): up-regulation
- effect on GI-GPx expression (GI-GPx; [4]): hardly an effect
- upregulation of GI-GPx RNA and protein (GI-GPx; replicon cells, six days): upregulation

SMILES: C=C1CC[C@H](O)C/C1=C/C=C1\CCC[C@]2(C)[C@@H]([C@H](C)CCCC(C)C)CC[C@@H]12 [Vitamin D3]
- reducing HCV load (HCV replicon cell lines): capable of reducing HCV load

SMILES: CC1=C(/C=C/C(C)=C/C=C/C(C)=C\C(=O)O)C(C)(C)CCC1 [13-cis RA, 13-cis retinoic acid]
- Effect on Replication (HCV replicon cell lines): +++
